The text below walks through data of PMC12794142 (2025).

The subject of experiment [1] is AT11 (DNA, G4) TGGTGGTGGTTGTTGTGGTGGTGGTGGT
In words: CD melting at 262 nm. The settings on record: 70 mM KCl, 20 mM potassium phosphate, pH 7.0, 2 μM DNA, 20 μM ligand.

For experiment [2] the test system is unchanged. In words: 1H NMR titration, NOESY. The settings on record: 70 mM KCl, 20 mM potassium phosphate; pH 7.0, 90%/10% H2O/D2O, DMSO up to 3%.
Experiment [3] has the same test system. As to the kind of experiment: fluorescence titration (ligand intrinsic emission). To be noted: 70 mM KCl, 20 mM potassium phosphate; for K d: per site.
For experiment [4] the test system is unchanged. In words: 1H NMR titration. The settings on record: 70 mM KCl, 20 mM potassium phosphate; pH 7.0, 90%/10% H2O/D2O; 3'-end G-quartet preferred.

Consider `COc1cc2c(cc1OC)-c1c3c(cc4c1[C@H](C2)N(C)CC4)OCO3`, for which the ΔT m entry in experiment [1] (additional inflection at 87 °C) was “+3 °C”. For the same molecule, the binding entry in experiment [2] is given as “yes”. Moreover, the K d in experiment [3] (pH 7.0, 20 °C, 2 μM ligand) was found to be 1000 ± 700 nM.

For `COc1ccc2c(c1O)-c1c3c(cc4c1[C@H](C2)N(C)CC4)OCO3`, the binding entry in experiment [4] was “yes”. For the same molecule, the ΔT m entry in experiment [1] is “+1 °C”. The molecule also displayed a K d in experiment [3] (pH 7.0, 20 °C, 2 μM ligand, average over multiple binding events) of 1700 ± 300 nM.

As for `CN1Cc2c(ccc3c2OCO3)[C@@H]2[C@H]1c1cc3c(cc1C[C@@H]2O)OCO3`, the ΔT m entry in experiment [1] is “+1 °C”. Also, the binding entry in experiment [2] is given as “yes”; in experiment [3] (pH 7.0, 20 °C, 2 μM ligand, alternating trend, not fittable), “yes”.

In the case of `CC[C@H]1C[C@@H]2C[C@H]3c4[nH]c5ccc(OC)cc5c4CCN(C2)[C@@H]13`, in experiment [1], the ΔT m result is “+1 °C”. Also, the binding result in experiment [2] was “yes”. This molecule had a K d in experiment [3] of 2000 ± 400 nM.
